For 18 compounds, Ki results are on record in patent US8691815B2, “Substituted oxindole derivatives, drugs containing said derivatives and the use thereof” (AbbVie Deutschland GmbH & Co. KG, priority 2005, dated 2014).

Where a name gives a salt, the structure may show the parent alone.

For the assay, the target named is T1, human vasopressin V1b receptor (Homo sapiens, UniProt P47901).
T1 construct: expressed in transfected cells; host or cells: CHO-K1 (cell line hV1b-3H2_CHO), membrane preparation
T1 sequence (P47901 1-424): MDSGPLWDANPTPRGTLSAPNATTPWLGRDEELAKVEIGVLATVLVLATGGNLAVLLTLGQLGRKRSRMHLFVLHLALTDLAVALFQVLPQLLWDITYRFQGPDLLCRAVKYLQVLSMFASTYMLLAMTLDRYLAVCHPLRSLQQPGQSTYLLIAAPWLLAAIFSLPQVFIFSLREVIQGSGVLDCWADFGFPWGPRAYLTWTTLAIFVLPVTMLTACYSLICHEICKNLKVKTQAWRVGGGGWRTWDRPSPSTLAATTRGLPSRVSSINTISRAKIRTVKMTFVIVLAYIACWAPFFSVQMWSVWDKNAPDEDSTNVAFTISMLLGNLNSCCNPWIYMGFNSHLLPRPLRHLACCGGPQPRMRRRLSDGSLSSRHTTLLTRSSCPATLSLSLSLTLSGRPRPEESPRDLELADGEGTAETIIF
In words: Vasopressin V1b receptor binding assay. Particulars: membranes from CHO-K1 cells with stably expressed human V1b receptors, displacement of 1.5 nM 3H-AVP. As for the experimental part:
Vasopressin V1b Receptor Binding Assay:
The test substances were dissolved in a concentration of 10^−2 M in DMSO (dimethyl sulfoxide) and further diluted to 5×10^−4 M to 5×10^−9 M in DMSO. This series of DMSO predilutions was diluted 1:10 with assay buffer. The substance concentration was again diluted 1:5 in the assay mixture (2% DMSO in the mixture).
The membrane pellet was again homogenized and centrifuged as described and then taken up in 50 mM Tris-HCl, pH 7.4, homogenized and stored in aliquots frozen in liquid nitrogen at −190° C.
The incubation buffer was: 50 mM Tris, 10 mM MgCl2, 0.1% BSA, pH 7.4.
The nonspecific binding was determined with 1 uM AVP (Bachem # H1780). All determinations were carried out as triplicate determinations. After incubation (60 minutes at room temperature), the free radioligand was removed by vacuum filtration (Skatron cell harvester 7000) through Whatman GF/B glass fiber filter mats, and the filters were transferred into scintillation vials. The liquid scintillation measurement took place in a Tricarb model 2000 or 2200CA instrument (Packard). Conversion of the measured cpm into dpm was carried out with the aid of a standard quench series.
The binding parameters were calculated by nonlinear regression in SAS.

In general, Ki refers to the dissociation constant of the complex between target and ligand, obtained from inhibition or displacement. The low end stands for higher affinity, the high end for lower affinity.

In the case of `COc1ccc(S(=O)(=O)N2C(=O)C(c3ccc(CN4CCN(C(C)=O)CC4)cc3OC)(N3CCC[C@H]3C(=O)N(C)C)c3cc(Cl)ccc32)c(OC)c1` (stereo partly drawn) [Example 11, (S)-1-[3-[4-(4-Acetylpiperazin-1-ylmethyl)-2-methoxyphenyl]-5-chloro-1-(2,4-dimethoxy-benzenesulfonyl)-2-oxo-2,3-dihydro-1H-indol-3-yl]pyrrolidine-2-dimethylcarboxamide], the Ki lay in the range of 10 to 100 nM. The compound `COc1ccc(S(=O)(=O)N2C(=O)C(c3ccc(CN(C)CCN(C)C)cc3OC)(N3CCC[C@H]3C(=O)N(C)C)c3cc(Cl)ccc32)c(OC)c1` (stereo partly drawn) [Example 12, (S)-1-[5-Chloro-1-(2,4-dimethoxybenzenesulfonyl)-3-(4-{[(2-dimethylaminoethyl)-methylamino]methyl}-2-methoxyphenyl)-2-oxo-2,3-dihydro-1H-indol-3-yl]pyrrolidine-2-dimethylcarboxamide] yielded an inhibition constant (Ki) of 1 to 10 nM. Next, `COc1ccc(S(=O)(=O)N2C(=O)C(c3ccc(CN4CCCC4)cc3OC)(N(C)[C@@H](C)C(=O)N(C)C)c3cc(Cl)ccc32)c(OC)c1` (stereo partly drawn) [Example 14, (S)-2-{[5-Chloro-1-(2,4-dimethoxybenzenesulfonyl)-3-(2-methoxy-4-pyrrolidin-1-yl-methylphenyl)-2-oxo-2,3-dihydro-1H-indol-3-yl]methylamino}-N,N-dimethyl-propionamide]: 1 to 10 nM; `COc1ccc(S(=O)(=O)N2C(=O)C(c3cc(CN(C)C)ccc3OC)(N3CCC[C@H]3C(=O)N(C)C)c3cc(Cl)ccc32)cc1` (stereo partly drawn) [Example 17, (S)-1-[5-Chloro-3-(5-dimethylaminomethyl-2-methoxyphenyl)-1-(4-methoxy-benzene-sulfonyl)-2-oxo-2,3-dihydro-1H-indol-3-yl]pyrrolidine-2-dimethylcarboxamide, trifluoroacetic acid salt]: under 1 nM.

Regarding `COc1ccc(S(=O)(=O)N2C(=O)C(c3cc(CN4CCCC4)ccc3OC)(N3CCC[C@H]3C(=O)N(C)C)c3cc(Cl)ccc32)cc1` (stereo partly drawn) [Example 18, (S)-1-[5-Chloro-1-(4-methoxybenzenesulfonyl)-3-(2-methoxy-5-pyrrolidin-1-yl-methylphenyl)-2-oxo-2,3-dihydro-1H-indol-3-yl]pyrrolidine-2-dimethylcarboxamide, trifluoroacetic acid salt], the Ki was under 1 nM. Next, `COc1ccc(S(=O)(=O)N2C(=O)C(c3cc(CN4CCCCC4)ccc3OC)(N3CCC[C@H]3C(=O)N(C)C)c3cc(Cl)ccc32)cc1` (stereo partly drawn) [Example 19, (S)-1-[5-Chloro-1-(4-methoxybenzenesulfonyl)-3-(2-methoxy-5-piperidin-1-ylmethyl-phenyl)-2-oxo-2,3-dihydro-1H-indol-3-yl]pyrrolidine-2-dimethylcarboxamide, trifluoroacetic acid salt]: under 1 nM. The same measure for `COc1ccc(S(=O)(=O)N2C(=O)C(c3cc(CN4CCN(C)CC4)ccc3OC)(N3CCC[C@H]3C(=O)N(C)C)c3cc(Cl)ccc32)cc1` (stereo partly drawn) [Example 20, (S)-1-{5-Chloro-1-(4-methoxybenzenesulfonyl)-3-[2-methoxy-5-(4-methylpiperazin-1-yl-methyl)phenyl]-2-oxo-2,3-dihydro-1H-indol-3-yl}pyrrolidine-2-dimethylcarboxamide, trifluoroacetic acid salt]: under 1 nM; for `COc1ccc(S(=O)(=O)N2C(=O)C(c3cc(CN4CCOCC4)ccc3OC)(N3CCC[C@H]3C(=O)N(C)C)c3cc(Cl)ccc32)cc1` (stereo partly drawn) [Example 21, (S)-1-[5-Chloro-1-(4-methoxybenzenesulfonyl)-3-(2-methoxy-5-morpholin-4-yl-methylphenyl)-2-oxo-2,3-dihydro-1H-indol-3-yl]pyrrolidine-2-dimethylcarboxamide, trifluoroacetic acid salt]: under 1 nM. The same measure for `COc1ccc(S(=O)(=O)N2C(=O)C(c3cc(CN(C)CCN(C)C)ccc3OC)(N3CCC[C@H]3C(=O)N(C)C)c3cc(Cl)ccc32)cc1` (stereo partly drawn) [Example 22, (S)-1-[5-Chloro-3-(5-{[(2-dimethylaminoethyl)methylamino]methyl}-2-methoxy-phenyl)-1-(4-methoxybenzenesulfonyl)-2-oxo-2,3-dihydro-1H-indol-3-yl]pyrrolidine-2-dimethylcarboxamide, trifluoroacetic acid salt]: under 1 nM; for `COc1ccc(S(=O)(=O)N2C(=O)C(c3cc(CN(C)CCCN(C)C)ccc3OC)(N3CCC[C@H]3C(=O)N(C)C)c3cc(Cl)ccc32)cc1` (stereo partly drawn) [Example 23, (S)-1-[5-Chloro-3-(5-{[(3-dimethylaminopropyl)methylamino]methyl}-2-methoxy-phenyl)-1-(4-methoxybenzenesulfonyl)-2-oxo-2,3-dihydro-1H-indol-3-yl]pyrrolidine-2-dimethylcarboxamide, trifluoroacetic acid salt]: under 1 nM; for `COc1ccc(S(=O)(=O)N2C(=O)C(c3cc(CN(C)C)ccc3OC)(N3CCC[C@H]3C(=O)N(C)C)c3cc(Cl)ccc32)c(OC)c1` (stereo partly drawn) [Example 24, (S)-1-[5-Chloro-1-(2,4-dimethoxybenzenesulfonyl)-3-(5-dimethylaminomethyl-2-methoxyphenyl)-2-oxo-2,3-dihydro-1H-indol-3-yl]pyrrolidine-2-dimethylcarboxamide, trifluoroacetic acid salt]: under 1 nM. Compound `COc1ccc(S(=O)(=O)N2C(=O)C(c3cc(CN4CCCC4)ccc3OC)(N3CCC[C@H]3C(=O)N(C)C)c3cc(Cl)ccc32)c(OC)c1` (stereo partly drawn) [Example 25, (S)-1-[5-Chloro-1-(2,4-dimethoxybenzenesulfonyl)-3-(2-methoxy-5-pyrrolidin-1-yl-methylphenyl)-2-oxo-2,3-dihydro-1H-indol-3-yl]pyrrolidine-2-dimethylcarboxamide, trifluoroacetic acid salt] had an inhibition constant Ki of under 1 nM. The same measure for `COc1ccc(S(=O)(=O)N2C(=O)C(c3cc(CN4CCCCC4)ccc3OC)(N3CCC[C@H]3C(=O)N(C)C)c3cc(Cl)ccc32)c(OC)c1` (stereo partly drawn) [Example 26, (S)-1-[5-Chloro-1-(2,4-dimethoxybenzenesulfonyl)-3-(2-methoxy-5-piperidin-1-yl-methylphenyl)-2-oxo-2,3-dihydro-1H-indol-3-yl]pyrrolidin-2-dimethylcarboxamide trifluoroacetic acid salt]: under 1 nM; for `COc1ccc(S(=O)(=O)N2C(=O)C(c3cc(CN4CCN(C)CC4)ccc3OC)(N3CCC[C@H]3C(=O)N(C)C)c3cc(Cl)ccc32)c(OC)c1` (stereo partly drawn) [Example 27, (S)-1-{5-Chloro-1-(2,4-dimethoxybenzenesulfonyl)-3-[2-methoxy-5-(4-methyl-piperazin-1-ylmethyl)phenyl]-2-oxo-2,3-dihydro-1H-indol-3-yl}pyrrolidine-2-dimethylcarboxamide, trifluoroacetic acid salt]: under 1 nM; for `COc1ccc(S(=O)(=O)N2C(=O)C(c3cc(CN4CCOCC4)ccc3OC)(N3CCC[C@H]3C(=O)N(C)C)c3cc(Cl)ccc32)c(OC)c1` (stereo partly drawn) [Example 28, (S)-1-[5-Chloro-1-(2,4-dimethoxybenzenesulfonyl)-3-(2-methoxy-5-morpholin-4-yl-methylphenyl)-2-oxo-2,3-dihydro-1H-indol-3-yl]pyrrolidine-2-dimethylcarboxamide, trifluoroacetic acid salt]: 1 to 10 nM. Next, `COc1ccc(S(=O)(=O)N2C(=O)C(c3cc(CN(C)CCN(C)C)ccc3OC)(N3CCC[C@H]3C(=O)N(C)C)c3cc(Cl)ccc32)c(OC)c1` (stereo partly drawn) [Example 29, (S)-1-[5-Chloro-1-(2,4-dimethoxybenzenesulfonyl)-3-(5-{[(2-dimethylaminoethyl)-methylamino]methyl}-2-methoxyphenyl)-2-oxo-2,3-dihydro-1H-indol-3-yl]pyrrolidine-2-dimethylcarboxamide, trifluoroacetic acid salt]: under 1 nM; `COc1ccc(S(=O)(=O)N2C(=O)C(c3cc(CN(C)CCCN(C)C)ccc3OC)(N3CCC[C@H]3C(=O)N(C)C)c3cc(Cl)ccc32)c(OC)c1` (stereo partly drawn) [Example 30, (S)-1-[5-Chloro-1-(2,4-dimethoxybenzenesulfonyl)-3-(5-{[(3-dimethylaminopropyl)-methylamino]methyl}-2-methoxyphenyl)-2-oxo-2,3-dihydro-1H-indol-3-yl]pyrrolidine-2-dimethylcarboxamide, trifluoroacetic acid salt]: under 1 nM; `COCCN(C)Cc1ccc(C2(N3CCC[C@H]3C(=O)N(C)C)C(=O)N(S(=O)(=O)c3ccc(OC)cc3OC)c3ccc(Cl)cc32)c(OC)c1` (stereo partly drawn) [Example 31, (S)-1-[5-Chloro-1-(2,4-dimethoxybenzenesulfonyl)-3-(2-methoxy-4-{[(2-methoxy-ethyl)methylamino]methyl}phenyl)-2-oxo-2,3-dihydro-1H-indol-3-yl]pyrrolidine-2-dimethylcarboxamide]: 1 to 10 nM.
